# In PubChem BioAssay (NCI):
#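 Abbreviation: GI50, concentration required for 50% inhibition of growth. TGI: total growth inhibition.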
# Key:
# Experiment in all cases: NCI tumour cell line growth inhibition, 384-well format
# [1] = test system: 786-0 renal
# [2] = test system: A498 renal
# [3] = test system: A549 NSCLC
# [4] = test system: ACHN renal
# [5] = test system: BT-549 breast
# [6] = test system: CAKI-1 renal
# [7] = test system: CCRF-CEM leukemia
# [8] = test system: COLO 205 colon
# [9] = test system: DU-145 prostate
# [10] = test system: EKVX NSCLC
# [11] = test system: HCC-2998 colon
# [12] = test system: HCT-116 colon
# [13] = test system: HCT-15 colon
# [14] = test system: HL-60(TB) leukemia
# [15] = test system: HOP-62 NSCLC
# [16] = test system: HOP-92 NSCLC
# [17] = test system: HS 578T breast
# [18] = test system: HT29 colon
# [19] = test system: IGROV1 ovarian
# [20] = test system: K-562 leukemia
# [21] = test system: KM12 colon
# [22] = test system: LOX IMVI melanoma
# [23] = test system: M14 melanoma
# [24] = test system: MALME-3M melanoma
# [25] = test system: MCF7 breast
# [26] = test system: MDA-MB-231 breast
# [27] = test system: MDA-MB-435 melanoma
# [28] = test system: MDA-MB-468 breast
# [29] = test system: MOLT-4 leukemia
# [30] = test system: NCI-H226 lung
# [31] = test system: NCI-H23 lung
# [32] = test system: NCI-H322M lung
# [33] = test system: NCI-H460 NSCLC
# [34] = test system: NCI-H522 lung
# [35] = test system: NCI/ADR-RES ovarian
# [36] = test system: OVCAR-3 ovarian
# [37] = test system: OVCAR-4 ovarian
# [38] = test system: OVCAR-8 ovarian
# [39] = test system: PC-3 prostate
# [40] = test system: RPMI-8226 leukemia
# [41] = test system: RXF 393 renal
# [42] = test system: SF-268 CNS
# [43] = test system: SF-295 CNS
# [44] = test system: SF-539 CNS
# [45] = test system: SK-MEL-28 melanoma
# [46] = test system: SK-MEL-5 melanoma
# [47] = test system: SK-OV-3 ovarian
# [48] = test system: SN12C renal
# [49] = test system: SNB-19 CNS
# [50] = test system: SNB-75 CNS
# [51] = test system: SR leukemia
# [52] = test system: SW-620 colon
# [53] = test system: T-47D breast
# [54] = test system: TK-10 renal
# [55] = test system: U251 glioblastoma
# [56] = test system: UACC-257 melanoma
# [57] = test system: UACC-62 melanoma
# [58] = test system: UO-31 renal
smiles,measurement,setting,value
CN1CCN(c2ccc(Nc3ncc4cc(C#N)c(=O)n(C5CCCC5)c4n3)cc2)CC1,GI50,[1],0.755 µM
same,TGI,[1],28.2 µM
same,GI50,[2],1.09 µM
same,TGI,[2],7.46 µM
same,GI50,[3],1.04 µM
same,TGI,[3],16.1 µM
same,GI50,[4],0.521 µM
same,TGI,[4],22.9 µM
same,GI50,[5],1.75 µM
same,TGI,[5],12.2 µM
same,GI50,[6],0.259 µM
same,TGI,[6],3.09 µM
same,GI50,[7],0.365 µM
same,TGI,[7],1.72 µM
same,GI50,[8],0.981 µM
same,TGI,[8],> 100 µM
same,GI50,[9],1.56 µM
same,TGI,[9],25.8 µM
same,GI50,[10],6.55 µM
same,TGI,[10],27.9 µM
same,GI50,[11],1.8 µM
same,TGI,[11],18.5 µM
same,GI50,[12],0.372 µM
same,TGI,[12],11.1 µM
same,GI50,[13],0.837 µM
same,TGI,[13],15.4 µM
same,GI50,[14],0.0949 µM
same,TGI,[14],1.38 µM
same,GI50,[15],2.43 µM
same,TGI,[15],14.6 µM
same,GI50,[16],2.03 µM
same,TGI,[16],29 µM
same,GI50,[17],1.42 µM
same,TGI,[17],3.95 µM
same,GI50,[18],1.18 µM
same,TGI,[18],> 100 µM
same,GI50,[19],0.674 µM
same,TGI,[19],11 µM
same,GI50,[20],0.462 µM
same,TGI,[20],> 100 µM
same,GI50,[21],1.02 µM
same,TGI,[21],55.5 µM
same,GI50,[22],0.799 µM
same,TGI,[22],13.9 µM
same,GI50,[23],1.07 µM
same,TGI,[23],> 100 µM
same,GI50,[24],0.535 µM
same,TGI,[24],92.9 µM
same,GI50,[25],0.299 µM
same,TGI,[25],3.68 µM
same,GI50,[26],0.718 µM
same,TGI,[26],> 100 µM
same,GI50,[27],3.37 µM
same,TGI,[27],66.9 µM
same,GI50,[28],1.89 µM
same,TGI,[28],4.31 µM
same,GI50,[29],0.141 µM
same,TGI,[29],0.532 µM
same,GI50,[30],0.457 µM
same,TGI,[30],13.8 µM
same,GI50,[31],1.23 µM
same,TGI,[31],18.7 µM
same,GI50,[32],2.22 µM
same,TGI,[32],47.8 µM
same,GI50,[33],0.271 µM
same,TGI,[33],11 µM
same,GI50,[34],1.2 µM
same,TGI,[34],18.9 µM
same,GI50,[35],8.59 µM
same,TGI,[35],34.9 µM
same,GI50,[36],3.1 µM
same,TGI,[36],14.4 µM
same,GI50,[37],27.1 µM
same,TGI,[37],> 100 µM
same,GI50,[38],4.65 µM
same,TGI,[38],37.2 µM
same,GI50,[39],0.819 µM
same,TGI,[39],46.5 µM
same,GI50,[40],0.0798 µM
same,TGI,[40],0.818 µM
same,GI50,[41],0.727 µM
same,TGI,[41],3.14 µM
same,GI50,[42],1.65 µM
same,TGI,[42],12.6 µM
same,GI50,[43],0.632 µM
same,TGI,[43],19.8 µM
same,GI50,[44],2.23 µM
same,TGI,[44],13.2 µM
same,GI50,[45],8.46 µM
same,TGI,[45],72.1 µM
same,GI50,[46],10.9 µM
same,TGI,[46],26.6 µM
same,GI50,[47],1.04 µM
same,TGI,[47],29.9 µM
same,GI50,[48],0.271 µM
same,TGI,[48],4.43 µM
same,GI50,[49],3.17 µM
same,TGI,[49],> 100 µM
same,GI50,[50],1.8 µM
same,TGI,[50],10.9 µM
same,GI50,[51],0.498 µM
same,TGI,[51],1 µM
same,GI50,[52],0.728 µM
same,TGI,[52],28 µM
same,GI50,[53],7.4 µM
same,TGI,[53],> 100 µM
same,GI50,[54],1.32 µM
same,TGI,[54],12.4 µM
same,GI50,[55],1.6 µM
same,TGI,[55],22.4 µM
same,GI50,[56],10.8 µM
same,TGI,[56],32.1 µM
same,GI50,[57],1.4 µM
same,TGI,[57],23.6 µM
same,GI50,[58],0.551 µM
same,TGI,[58],14.8 µM
